The source made the active and inactive calls.
Assays:
[1] = target: T1, Polyadenylate-binding protein 1 (Homo sapiens, UniProt P11940); experiment: PABP1 MLLE–PAM2 binding inhibitor potency, dose response, biochemical, fluorescence polarization, FITC-PAM2 peptide (AID 602259); format: functional; details: read-out: IC50_Mean
[2] = target: T1, Polyadenylate-binding protein 1; experiment: PABP1 MLLE–PAM2 interaction inhibitors, dose response, miRNA deadenylation inhibitor project, biochemical, fluorescence polarization, Cy5-PAM2 peptide, secondary (AID 602260); format: functional; details: read-out: IC50_Mean
cells [3] = format: functional, cell-based
cells [4] = format: functional, cell-based; remark: listed apart in the source
[5] = target: T2, Rac GTPase-activating protein 1 (Homo sapiens, UniProt Q9H0H5); experiment: MgcRacGAP GTPase-activating activity inhibitors, confirmation, biochemical, ADP Hunter fluorescence, primary and confirmatory (AID 624330); format: functional
T2 sequence (Q9H0H5 whole entry): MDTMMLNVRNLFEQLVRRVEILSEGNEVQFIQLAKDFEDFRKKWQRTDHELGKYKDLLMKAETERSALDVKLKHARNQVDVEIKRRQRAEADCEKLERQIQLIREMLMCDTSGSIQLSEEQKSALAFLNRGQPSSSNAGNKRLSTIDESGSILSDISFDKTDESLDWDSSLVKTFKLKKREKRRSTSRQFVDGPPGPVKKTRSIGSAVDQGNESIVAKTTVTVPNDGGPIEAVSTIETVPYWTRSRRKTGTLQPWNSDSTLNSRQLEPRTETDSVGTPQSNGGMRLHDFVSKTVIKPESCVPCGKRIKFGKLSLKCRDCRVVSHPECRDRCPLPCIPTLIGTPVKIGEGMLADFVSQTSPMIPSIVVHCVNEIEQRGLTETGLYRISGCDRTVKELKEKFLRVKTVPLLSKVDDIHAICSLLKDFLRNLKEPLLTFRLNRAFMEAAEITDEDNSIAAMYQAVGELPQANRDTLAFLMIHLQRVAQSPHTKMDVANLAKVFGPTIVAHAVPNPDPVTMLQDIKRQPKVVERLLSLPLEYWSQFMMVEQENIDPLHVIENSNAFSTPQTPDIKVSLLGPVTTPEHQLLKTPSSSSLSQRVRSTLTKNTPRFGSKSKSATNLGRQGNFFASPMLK

[6] = target: Induced myeloid leukemia cell differentiation protein Mcl-1 (Homo sapiens, UniProt Q07820); format: functional
[7] = target: T3, Zinc finger protein mex-5 (Caenorhabditis elegans, UniProt Q9XUB2); experiment: MEX-5/TCR-2 RNA interaction inhibitors, dose response, biochemical, C. elegans, fluorescence polarization (AID 1960)
T3 sequence (Q9XUB2 whole entry): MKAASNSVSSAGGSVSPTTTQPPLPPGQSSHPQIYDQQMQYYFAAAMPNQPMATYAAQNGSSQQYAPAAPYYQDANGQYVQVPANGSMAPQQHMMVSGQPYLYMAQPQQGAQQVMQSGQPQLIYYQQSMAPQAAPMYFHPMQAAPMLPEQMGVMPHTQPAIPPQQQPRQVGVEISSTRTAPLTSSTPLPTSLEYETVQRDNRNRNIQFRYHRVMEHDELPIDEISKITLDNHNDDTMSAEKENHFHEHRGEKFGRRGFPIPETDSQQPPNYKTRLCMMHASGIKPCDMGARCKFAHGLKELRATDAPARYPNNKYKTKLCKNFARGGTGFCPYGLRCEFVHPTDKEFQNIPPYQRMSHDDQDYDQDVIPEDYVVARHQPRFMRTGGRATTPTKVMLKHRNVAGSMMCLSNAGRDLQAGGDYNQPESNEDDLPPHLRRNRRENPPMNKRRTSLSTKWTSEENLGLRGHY

[8] = target: T4, Replicative DNA helicase DnaB (Mycobacterium tuberculosis, UniProt P9WMR3); experiment: DnaB intein splicing inhibitors, dose response, biochemical, cell-free fluorescence (AID 449749); format: functional
T4 sequence (P9WMR3 whole entry): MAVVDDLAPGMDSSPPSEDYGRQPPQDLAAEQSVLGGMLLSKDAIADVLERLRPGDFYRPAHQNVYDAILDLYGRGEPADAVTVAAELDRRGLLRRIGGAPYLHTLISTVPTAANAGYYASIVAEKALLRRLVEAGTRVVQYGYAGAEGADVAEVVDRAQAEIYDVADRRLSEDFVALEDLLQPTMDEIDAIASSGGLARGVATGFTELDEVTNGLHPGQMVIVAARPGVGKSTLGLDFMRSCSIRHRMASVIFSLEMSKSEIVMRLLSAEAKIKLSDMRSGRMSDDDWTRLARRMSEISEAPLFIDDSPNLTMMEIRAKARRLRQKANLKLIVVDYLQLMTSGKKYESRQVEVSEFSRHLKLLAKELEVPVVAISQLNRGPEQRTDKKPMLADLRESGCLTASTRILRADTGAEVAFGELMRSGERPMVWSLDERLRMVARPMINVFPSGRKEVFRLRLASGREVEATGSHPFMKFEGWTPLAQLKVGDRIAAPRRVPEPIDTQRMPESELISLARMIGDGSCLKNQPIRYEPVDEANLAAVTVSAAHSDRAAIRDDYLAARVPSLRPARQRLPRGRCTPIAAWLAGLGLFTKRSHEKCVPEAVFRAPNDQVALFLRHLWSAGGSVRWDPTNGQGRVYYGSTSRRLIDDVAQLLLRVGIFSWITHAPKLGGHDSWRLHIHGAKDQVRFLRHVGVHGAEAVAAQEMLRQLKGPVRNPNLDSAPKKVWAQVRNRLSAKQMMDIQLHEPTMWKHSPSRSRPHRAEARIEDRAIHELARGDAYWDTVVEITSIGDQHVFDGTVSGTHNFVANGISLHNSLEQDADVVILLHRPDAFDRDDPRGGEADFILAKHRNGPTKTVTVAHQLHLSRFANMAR

[9] = target: T5, RNA-binding protein pos-1 (Caenorhabditis elegans, UniProt G5EF15); experiment: inhibitors of POS-1/mex-3 RNA binding, dose response, biochemical, fluorescence polarization (AID 1964);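 note: purified POS-1 fused to maltose binding protein made in E. coli; potency of compounds blocking POS-1 binding to fluorescent RNA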
T5 sequence (G5EF15 whole entry): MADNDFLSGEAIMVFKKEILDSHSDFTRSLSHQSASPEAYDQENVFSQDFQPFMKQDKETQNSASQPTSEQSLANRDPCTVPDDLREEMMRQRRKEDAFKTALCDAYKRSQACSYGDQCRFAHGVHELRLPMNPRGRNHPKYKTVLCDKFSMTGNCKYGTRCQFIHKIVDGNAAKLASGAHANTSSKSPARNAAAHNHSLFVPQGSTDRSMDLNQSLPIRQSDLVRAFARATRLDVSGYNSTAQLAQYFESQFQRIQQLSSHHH

Protein RecA = target: T6, Protein RecA (Mycobacterium tuberculosis, UniProt P9WHJ3); experiment: Fluorescence Cell-Free Homogeneous Dose Retest to Identify Inhibitors of RecA-Intein Splicing Activity. [Related pubchem assays (depositor defined):AID2097, AID2223, AID489010, AID492950]; format: functional
T6 sequence (P9WHJ3 whole entry): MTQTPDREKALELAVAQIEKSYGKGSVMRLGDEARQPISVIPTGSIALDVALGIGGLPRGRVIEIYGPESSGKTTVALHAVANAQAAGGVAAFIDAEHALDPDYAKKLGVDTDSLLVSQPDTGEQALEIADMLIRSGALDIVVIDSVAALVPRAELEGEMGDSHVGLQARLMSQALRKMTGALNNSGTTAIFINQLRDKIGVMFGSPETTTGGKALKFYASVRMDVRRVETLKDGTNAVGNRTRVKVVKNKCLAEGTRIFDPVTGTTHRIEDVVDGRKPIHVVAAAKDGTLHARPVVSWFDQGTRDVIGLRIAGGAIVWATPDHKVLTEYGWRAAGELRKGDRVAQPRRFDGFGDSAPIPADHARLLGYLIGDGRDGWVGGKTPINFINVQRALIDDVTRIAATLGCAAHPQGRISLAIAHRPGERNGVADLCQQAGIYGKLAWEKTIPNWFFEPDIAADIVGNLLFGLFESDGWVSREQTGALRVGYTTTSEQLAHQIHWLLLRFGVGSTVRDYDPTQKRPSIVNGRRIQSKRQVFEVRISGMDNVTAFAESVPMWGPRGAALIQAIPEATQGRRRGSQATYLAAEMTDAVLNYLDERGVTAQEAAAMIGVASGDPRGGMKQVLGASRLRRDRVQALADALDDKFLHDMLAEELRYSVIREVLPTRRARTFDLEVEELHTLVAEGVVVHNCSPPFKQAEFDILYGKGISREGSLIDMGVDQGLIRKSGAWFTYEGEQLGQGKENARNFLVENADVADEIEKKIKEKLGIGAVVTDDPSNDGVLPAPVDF

[10] = Luminescence Cell-Based Dose Confirmation HTS to Identify Inhibitors of Platelet Dense Granule Release. [Related pubchem assays: 1663 (Primary HTS), 1678 (Summary of Project)]; format: functional
[11] = target: Luciferin 4-monooxygenase (Photinus pyralis, UniProt P08659); experiment: firefly luciferase enzyme inhibitors, dose response, biochemical, luminescence (AID 1891)
Protein skinhead-1 = target: T7, Protein skinhead-1 (Caenorhabditis elegans, UniProt P34707); format: functional
T7 sequence (P34707 whole entry): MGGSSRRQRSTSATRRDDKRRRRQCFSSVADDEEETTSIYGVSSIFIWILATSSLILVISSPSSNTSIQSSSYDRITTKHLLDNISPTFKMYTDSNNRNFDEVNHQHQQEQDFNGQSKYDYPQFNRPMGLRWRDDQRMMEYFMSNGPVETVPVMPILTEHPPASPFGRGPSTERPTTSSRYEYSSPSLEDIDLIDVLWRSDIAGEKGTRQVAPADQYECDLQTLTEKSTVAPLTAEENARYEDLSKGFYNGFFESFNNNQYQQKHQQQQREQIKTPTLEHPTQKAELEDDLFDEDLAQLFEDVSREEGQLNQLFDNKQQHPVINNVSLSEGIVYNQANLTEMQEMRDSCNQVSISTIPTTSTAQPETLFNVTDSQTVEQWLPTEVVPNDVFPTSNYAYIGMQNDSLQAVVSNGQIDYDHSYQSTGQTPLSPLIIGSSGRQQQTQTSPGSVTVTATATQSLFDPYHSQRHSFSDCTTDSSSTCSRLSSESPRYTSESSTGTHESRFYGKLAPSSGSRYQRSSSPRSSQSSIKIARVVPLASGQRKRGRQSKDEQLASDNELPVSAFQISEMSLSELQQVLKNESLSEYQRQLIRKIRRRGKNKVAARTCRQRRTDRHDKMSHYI

Large T antigen = Large T antigen (Simian virus 40, UniProt P03070); format: functional, Betapolyomavirus macacae;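 note: Confirmatory-stage PubChem screen for compounds that inhibit SV40 T antigen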
Chain of Large T antigen (P03070 whole entry): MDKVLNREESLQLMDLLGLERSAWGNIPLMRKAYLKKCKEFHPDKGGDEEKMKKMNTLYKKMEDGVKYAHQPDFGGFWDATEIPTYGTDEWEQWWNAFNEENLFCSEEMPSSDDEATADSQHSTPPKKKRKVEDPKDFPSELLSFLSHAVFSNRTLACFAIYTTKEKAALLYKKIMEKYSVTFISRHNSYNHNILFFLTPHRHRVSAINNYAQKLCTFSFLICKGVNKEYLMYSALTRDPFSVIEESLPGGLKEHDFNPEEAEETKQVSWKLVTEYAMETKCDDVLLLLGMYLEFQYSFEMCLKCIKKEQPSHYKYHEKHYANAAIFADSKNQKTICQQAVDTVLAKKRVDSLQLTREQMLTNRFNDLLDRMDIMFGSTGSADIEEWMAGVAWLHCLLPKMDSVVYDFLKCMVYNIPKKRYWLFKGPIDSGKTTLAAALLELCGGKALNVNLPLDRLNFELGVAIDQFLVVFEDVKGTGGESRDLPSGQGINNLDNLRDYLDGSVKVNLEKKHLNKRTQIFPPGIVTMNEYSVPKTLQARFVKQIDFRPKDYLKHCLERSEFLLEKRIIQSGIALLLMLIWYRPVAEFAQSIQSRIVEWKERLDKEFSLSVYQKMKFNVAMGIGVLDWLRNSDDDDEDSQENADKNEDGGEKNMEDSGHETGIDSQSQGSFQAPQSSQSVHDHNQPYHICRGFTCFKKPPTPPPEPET

Chain of Induced myeloid leukemia cell differentiation protein Mcl-1 (Q07820 whole entry): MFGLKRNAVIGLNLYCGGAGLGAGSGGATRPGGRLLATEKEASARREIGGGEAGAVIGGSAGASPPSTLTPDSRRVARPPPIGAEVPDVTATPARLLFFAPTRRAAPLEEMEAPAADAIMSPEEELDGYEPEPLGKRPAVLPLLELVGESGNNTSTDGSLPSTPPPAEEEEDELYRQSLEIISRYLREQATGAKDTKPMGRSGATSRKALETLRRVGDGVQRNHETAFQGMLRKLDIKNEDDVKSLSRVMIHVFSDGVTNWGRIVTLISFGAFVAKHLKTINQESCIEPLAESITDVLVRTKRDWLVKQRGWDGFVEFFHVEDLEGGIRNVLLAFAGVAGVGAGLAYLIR
T1 sequence (P11940 whole entry): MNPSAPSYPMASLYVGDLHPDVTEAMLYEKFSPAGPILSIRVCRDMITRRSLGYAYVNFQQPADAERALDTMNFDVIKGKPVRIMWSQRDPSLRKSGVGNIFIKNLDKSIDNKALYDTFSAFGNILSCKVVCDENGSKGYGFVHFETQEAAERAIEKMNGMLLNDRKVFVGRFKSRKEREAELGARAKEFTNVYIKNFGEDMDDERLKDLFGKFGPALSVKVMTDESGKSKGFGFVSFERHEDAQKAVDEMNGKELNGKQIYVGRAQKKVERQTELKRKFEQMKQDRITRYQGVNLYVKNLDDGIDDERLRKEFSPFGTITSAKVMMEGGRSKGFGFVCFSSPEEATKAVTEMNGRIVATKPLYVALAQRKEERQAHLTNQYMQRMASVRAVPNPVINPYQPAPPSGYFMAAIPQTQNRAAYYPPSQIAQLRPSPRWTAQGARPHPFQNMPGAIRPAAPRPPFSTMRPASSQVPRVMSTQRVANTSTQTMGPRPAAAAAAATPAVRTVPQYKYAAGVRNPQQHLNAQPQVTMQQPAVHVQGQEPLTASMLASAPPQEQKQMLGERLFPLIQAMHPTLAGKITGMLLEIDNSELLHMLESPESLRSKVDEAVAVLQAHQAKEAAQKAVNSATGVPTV
Chain of Luciferin 4-monooxygenase (P08659 whole entry): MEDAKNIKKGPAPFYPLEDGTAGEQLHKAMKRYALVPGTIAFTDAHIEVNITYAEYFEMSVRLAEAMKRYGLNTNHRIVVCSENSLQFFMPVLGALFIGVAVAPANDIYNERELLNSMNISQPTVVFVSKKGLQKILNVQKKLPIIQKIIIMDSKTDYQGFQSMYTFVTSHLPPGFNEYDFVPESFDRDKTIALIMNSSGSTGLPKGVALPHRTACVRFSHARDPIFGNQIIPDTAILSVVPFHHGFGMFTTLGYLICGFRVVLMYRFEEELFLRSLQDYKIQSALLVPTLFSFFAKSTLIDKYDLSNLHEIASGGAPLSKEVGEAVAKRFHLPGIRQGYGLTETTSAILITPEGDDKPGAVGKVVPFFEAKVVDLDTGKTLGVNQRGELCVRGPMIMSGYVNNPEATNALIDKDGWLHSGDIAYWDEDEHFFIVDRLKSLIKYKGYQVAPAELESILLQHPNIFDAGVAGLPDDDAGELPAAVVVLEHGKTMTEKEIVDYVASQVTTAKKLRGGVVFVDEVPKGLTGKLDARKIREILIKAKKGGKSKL

## CC(=O)C(Sc1nccc(-c2cccs2)n1)C(C)=O
[1]
  IC50: > 66 µM (inactive)
[2]
  IC50: > 66 µM (inactive)

## Cc1ccc(SC2CC(=O)N(c3ccc4c(c3)OCCO4)C2=O)cc1 (centres undefined)
[1]
  IC50: > 66 µM (inactive)
[2]
  IC50: > 66 µM (inactive)

## O=[N+]([O-])c1ccc(-c2nc(=S)c3c(o2)CCCC3)cc1
[1]
  IC50: > 66 µM (inactive)
[2]
  IC50: > 66 µM (inactive)

## CCN1CCN(c2ccc([N+](=O)[O-])cc2C=C2C(=O)NC(=O)NC2=O)CC1
Cells [3]
  EC50: > 350 µM (not active)
Cells [4]
  EC50: > 350 µM (not active)

## COc1ccccc1CNCC(=O)Nc1ccc(N(C)C)cc1
[5]
  IC50: 32.1 µM (active)

## CCN=c1ccc(Br)cc(C(=O)/C=C/c2ccc(Cl)cc2)c1O
[6]
  IC50: 3.55 µM (active)

## Cc1ccc(O)c(NC(=O)c2ccc3c(c2)C(=O)N(Cc2ccco2)C3=O)c1
Cells [3]
  EC50: > 350 µM (not active)
Cells [4]
  EC50: 52.2 µM (active)

## CCN1C(=O)/C(=C/c2ccc3c(c2)CCN3CCCCl)C(=O)NC1=S
[6]
  IC50: 3.4 µM (active)

## CCN(CC)C(=O)CSc1nnc2nnc3cc(Cl)ccc3n12
[7]
  EC50: 18.5 µM (active)
[1]
  IC50: 34.4 µM (inactive)
[2]
  IC50: > 66 µM (inactive)
[8]
  AC50: > 380 µM (inactive)
[9]
  EC50: 23.2 µM (active)
Protein RecA
  EC50: 0.499 µM (active)

## COc1cccc(N2CC(C(=O)Oc3ccc4ccccc4c3)CC2=O)c1 (centres undefined)
[5]
  IC50: 16.1 µM (active)

## Cc1ccc(NC(=O)CC2SC(=O)N(c3ccccc3)C2=O)cc1 (centres undefined)
[1]
  IC50: > 66 µM (inactive)
[10]
  EC50: 109 µM (active)
[2]
  IC50: > 66 µM (inactive)
[11]
  EC50: > 112 µM (not active)

## Cc1cc(NC(=O)CN2CCN(C)CC2)no1
[5]
  IC50: 157 µM (active)

## Cc1ccc(S(=O)(=O)Nc2nsc(N)n2)cc1
[5]
  IC50: 82.8 µM (active)

## C/C(=C\C(=O)OCC(=O)NCc1ccccc1)C(=O)OCC(=O)NCc1ccccc1
Cells [3]
  EC50: > 350 µM (not active)
Cells [4]
  EC50: > 350 µM (not active)

## CSCc1nc2sc(C(=O)Nc3nc(C)cs3)c(C)c2c(=O)[nH]1
[6]
  IC50: 3.89 µM (active)

## CCOC(=O)CN(C(=O)COc1nc(C)cc(C)c1C#N)c1cccc(Cl)c1
Cells [3]
  EC50: > 350 µM (not active)
Cells [4]
  EC50: > 350 µM (not active)

## Cc1cc2cc(CNC(=O)Cc3ccc([N+](=O)[O-])cc3)ccc2n1C
[1]
  IC50: > 66 µM (inactive)
[2]
  IC50: > 66 µM (inactive)
Protein skinhead-1
  IC50: > 100 µM (inactive)

## Cc1cc2cc(CNC(=O)c3cccs3)ccc2n1C
[1]
  IC50: > 66 µM (inactive)
[2]
  IC50: > 66 µM (inactive)

## O=C1NC(=O)C(=Cc2cccs2)C(=O)N1
[5]
  IC50: 188 µM (active)

## O=C(N/N=C/c1ccc(O)c(O)c1)c1ccc(CSc2cccc3cccnc23)cc1
Large T antigen
  IC50: 5.43 µM (active)
[6]
  IC50: 4.61 µM (active)
